The results in this text go back to PubChem BioAssay (NCI).

Assay in all cases: NCI-60 cell line screen, 48 h
Assay [1] has as its system HT29 colon.
In assay [2] the test system is M14 melanoma.
Assay [3] concerns MDA-MB-435.
In assay [4] the test system is NCI-H23 lung.
For assay [5], the system named is SF-268 CNS.
Assay [6] has as its system SK-MEL-28 melanoma.
The test system of assay [7] is SK-OV-3 ovarian.
The subject of assay [8] is SR leukemia.
Assay [9] has as its system SW-620 colon.
Assay [10] deals with BT-549 breast.

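The compound was tested at five concentrations on cells cultured in 96-well plates, with a 48-hour exposure period. The concentration for 50% growth inhibition is given as GI50. TGI denotes the concentration required for complete inhibition of growth.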

In the case of `CN(C)c1cccc2c(S(=O)(=O)NCCN)cccc12`, the TGI in assay [1], in assay [2], in assay [3], in assay [4], in [5] and in assay [6] was greater than 100 µM each time. In addition, the TGI in [7], in assay [8] and in [9] was greater than 100 µM each time.
On to `COc1cc(C2c3cc4c(cc3[C@@H](Nc3ccc(F)cc3)C3COC[C@H]23)OCO4)cc(OC)c1O` (some centres undefined), for which the TGI in assay [1] was 8.82 µM; in assay [2], greater than 25 µM; in [3], greater than 25 µM; in assay [5] it was greater than 25 µM; in assay [6], greater than 25 µM; in [7] it was greater than 25 µM. The figures for the TGI in assay [8] and in assay [9] were 5.5 µM and greater than 25 µM, respectively.
As to `COc1ccc(/C(C=O)=C(\Cl)c2ccc(OC)c(OC)c2)cc1`, the TGI in [1] is greater than 100 µM; in [2], greater than 100 µM; in [4], greater than 100 µM; in assay [5] it was greater than 100 µM; in [7], greater than 100 µM; in assay [8], 31.7 µM. In assay [9], this compound returned a TGI greater than 100 µM.
Consider `NCCCNc1nc2ccccc2c2c(=O)c3cc(Cl)ccc3sc12`, for which the GI50 in [10] is 13.5 µM; in assay [1], 1.72 µM; in assay [3] it was 1.75 µM; in [7], 1.58 µM. Also, the TGI amounted to 46.2 µM in assay [10], 3.18 µM in assay [1], 3.18 µM in assay [3] and 3.48 µM in assay [7].
Consider `COc1cccc(/C=N/[N-]C(N)=O)c1[O-].[Cu+2].[OH3+]`, for which the results for the GI50 in assay [1], in assay [4] and in assay [8] were 9.17 µM, 9.7 µM and 5.67 µM, respectively. Moreover, the TGI was determined as 21.3 µM in assay [1]; 21.9 µM in assay [4]; 32.9 µM in [5]; 27.8 µM in assay [6]; 43.9 µM in assay [8]; 27.3 µM in assay [9].
As for `NC1CCC2(O)c3ccccc3C2C1` (centres undefined), the TGI in assay [1], in assay [2], in [4], in [5], in [6] and in assay [7] was greater than 100 µM each time. Moreover, the TGI in [8] and in [9] was greater than 100 µM each time.
For the compound `CC1=NC(=N)N=C(C)C1N=Nc1ccc2nc(C)[nH]c2c1` (centres undefined), the TGI in assay [10], in [1], in [2], in assay [3], in [4] and in assay [5] was greater than 100 µM throughout. The TGI in [6], in assay [7] and in assay [9] was greater than 100 µM each time.
Regarding `CC(=O)CCC1(C(=O)OCC(C)C)CCCC1=O` (centres undefined), the TGI in [10], in [1], in assay [2], in [3], in [4] and in [5] was greater than 100 µM in each case. The TGI in assay [6], in assay [7] and in assay [9] was greater than 100 µM throughout.
Consider `CCOC(=O)CNC(=O)c1[nH]cnc1/N=N/N(C)C`, for which the TGI in assay [1], in [2], in assay [4], in assay [5], in assay [6] and in assay [7] was greater than 100 µM in each case. Further, the TGI in assay [8] and in assay [9] was greater than 100 µM each time.
Consider `O=C1/C(=C\c2cccc(Oc3ccccc3)c2)SC(c2ccccc2)N1c1cc(Cl)ccc1Cl` (centres undefined), for which the TGI in assay [10] was greater than 100 µM; in [1], greater than 100 µM; in [2] it was 84.4 µM; in assay [3], greater than 100 µM; in assay [4] it was greater than 100 µM; in [5] it was 58.6 µM. Besides, the TGI in assay [6] is greater than 100 µM; in [7], greater than 100 µM; in assay [9], 41.6 µM.
With `COc1c(OC2OC(CO)C(O)C(O)C2O)cc2c(c1OC)-c1ccc(OC)c(=O)cc1C(NC(C)=O)CC2` (centres undefined), the TGI in [1], in [2], in assay [4], in assay [5], in assay [6] and in assay [7] was greater than 100 µM in each case. For the same compound, the TGI in assay [8] and in assay [9] was greater than 100 µM each time.
On to `O=C(O)CCCc1ccc2c(c1)C(C(=O)O)CC2` (centres undefined), for which the TGI in assay [10], in assay [1], in assay [2], in assay [4], in assay [5] and in assay [6] was greater than 100 µM throughout. The TGI in assay [7], in assay [8] and in assay [9] was greater than 100 µM each time.
Consider `C/C(CCN(C)C)=N/O`, for which the TGI is 10.3 µM in [1]; 21.9 µM in assay [2]; 25.5 µM in assay [4]; 2.49 µM in [5]; 14.8 µM in assay [6]; 54.1 µM in assay [7]. For the same compound, the figures for the TGI in assay [8] and in [9] were 5.67 µM and 6.71 µM, respectively.
Take `CCOC(=O)C(Cc1ccc(N=NN(C)C)cc1)NC(=O)CC1c2ccccc2-c2ccccc21` (centres undefined): the TGI in [1], in assay [2], in assay [4], in assay [5], in [6] and in assay [7] was greater than 100 µM each time. In addition, the TGI in [8] and in assay [9] was greater than 100 µM in each case.
Turning to `Cc1ccc(S(=O)(=O)N/N=c2/sc3ccccc3n2C)cc1`, the TGI in assay [1], in [3], in assay [4], in assay [5], in assay [6] and in assay [7] was greater than 100 µM in each case. Also, the TGI in [8] and in assay [9] was greater than 100 µM each time.
Turning to `C=CCOC(C)(C)C1=CCC(C)CC1` (centres undefined), the TGI in [10], in assay [1], in assay [2], in assay [3], in assay [4] and in assay [5] was greater than 100 µM throughout. In addition, the TGI in [6], in [7] and in [9] was greater than 100 µM throughout.
